# Read-outs that look alike come from different tables or passages of the source.
# What was measured:
# Format in all cases: cell-based, Escherichia coli
# [1] = system: EKO-35 araC::mexCD (MexCD from P. aeruginosa); assay: MIC susceptibility profiling, efflux platform; details: for Fold change of MICs: EKO-35 araC::mexCD compared to EKO-35; for MIC: Table 13B, non-porinated, technical duplicate, read-out: Minimum Inhibitory Concentration, EKO-35 araC::mexCD
# Procedure, shortened: (§1)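 LB o/n 37 °C → PBS pH 7.4, OD600 ~1.0 → 1/2000 in MHB II; 2-fold cmpd series, duplicate, DMSO ctrl; 18 h 37 °C, 900 rpm; OD600 post minus pre.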
# EKO-35 araC::emrAB = assay: MIC susceptibility profiling, efflux platform; details: for Fold change of MICs: EKO-35 araC::emrAB compared to EKO-35; for MIC: Escherichia coli, Table 13B, non-porinated, technical duplicate, read-out: Minimum Inhibitory Concentration, EKO-35 araC::emrAB
# Procedure, shortened: as §1
# EKO-35 araC::acrEF = assay: MIC susceptibility profiling, efflux platform; details: for Fold change of MICs: EKO-35 araC::acrEF compared to EKO-35; for MIC: Escherichia coli, Table 13A, non-porinated, technical duplicate, read-out: Minimum Inhibitory Concentration, EKO-35 araC::acrEF
# Procedure, shortened: as §1
# EKO-35 araC::mdtEF = assay: MIC susceptibility profiling, efflux platform; details: for Fold change of MICs: EKO-35 araC::mdtEF compared to EKO-35; for MIC: Escherichia coli, Table 13A, non-porinated, technical duplicate, read-out: Minimum Inhibitory Concentration, EKO-35 araC::mdtEF
# Procedure, shortened: as §1
# EKO-35 araC::acrB = assay: MIC susceptibility profiling, efflux platform; details: for Fold change of MICs: EKO-35 araC::acrB compared to EKO-35; for MIC: Escherichia coli, Table 13A, non-porinated, technical duplicate, read-out: Minimum Inhibitory Concentration, EKO-35 araC::acrB
# Procedure, shortened: as §1
# EKO-35 araC::acrBD408A = assay: MIC susceptibility profiling, efflux platform; details: for Fold change of MICs: EKO-35 araC::acrBD408A compared to EKO-35; for MIC: Escherichia coli, Table 13B, non-porinated, technical duplicate, read-out: Minimum Inhibitory Concentration, EKO-35 araC::acrBD408A
# Procedure, shortened: as §1
# EKO-35 araC::macAB = assay: MIC susceptibility profiling, efflux platform; details: for Fold change of MICs: EKO-35 araC::macAB compared to EKO-35
# Procedure, shortened: as §1
# EKO-35 araC::acrD = assay: MIC susceptibility profiling, efflux platform; details: for Fold change of MICs: EKO-35 araC::acrD compared to EKO-35; for MIC: Escherichia coli, Table 13A, non-porinated, technical duplicate, read-out: Minimum Inhibitory Concentration, EKO-35 araC::acrD
# Procedure, shortened: as §1
# EKO-35 araC::mdtBC = assay: MIC susceptibility profiling, efflux platform; details: for Fold change of MICs: EKO-35 araC::mdtBC compared to EKO-35; for MIC: Escherichia coli, Table 13B, non-porinated, technical duplicate, read-out: Minimum Inhibitory Concentration, EKO-35 araC::mdtBC
# Procedure, shortened: as §1
# EKO-35 araC::emrKY = assay: MIC susceptibility profiling, efflux platform; details: for Fold change of MICs: EKO-35 araC::emrKY compared to EKO-35
# Procedure, shortened: as §1
# E. coli EKO-35 = assay: microbe, parasite or virus in culture; details: for Fold change of MICs: EKO-35 compared to EKO-35 (reference); for MIC: Escherichia coli, EKO35, technical duplicate
# Procedure, shortened: as §1
# [2] = system: wild-type E. coli K-12 str. BW25113; assay: microbe, parasite or virus in culture; details: Escherichia coli, BW25113, technical duplicate
# Procedure, shortened: as §1
# E. coli ΔtolC = assay: microbe, parasite or virus in culture; details: for MIC: Escherichia coli, 18 h, read-out: Minimum Inhibitory Concentration, ΔtolC; for Minimum inhibitory concentration (MIC), ΔtolC: Table 10, without pore, technical duplicate
# Procedure, shortened: as §1
# EKO-35 araC::acrD Pore = assay: MIC susceptibility profiling, porinated efflux platform; details: for Fold changes of MICs: EKO-35 araC::acrD Pore compared to EKO-35-Pore; for MIC: Escherichia coli, Table 14A, porinated, technical duplicate, read-out: Minimum inhibitory concentration, EKO-35 araC::acrD Pore
# Procedure, shortened: (§2)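 E. coli strains carrying a genomically integrated constitutive fhuA ΔC/Δ4L pore were grown 18 h in LB at 37 °C, then diluted 1/2000 in MHB II from OD600 ~1.0. Compounds were tested in duplicate, 2-fold serial titration, for 18 h at 37 °C with shaking. MIC came from OD600 with the pre-incubation background subtracted.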
# EKO-35 araC::emrKY Pore = assay: as above; details: for Fold changes of MICs: EKO-35 araC::emrKY Pore compared to EKO-35-Pore; for MIC: Escherichia coli, EKO-35 araC::emrKY Pore, technical duplicate, read-out: Minimum inhibitory concentration
# Procedure, shortened: as §2
# [3] = system: EKO-35 araC::acrBD408A Pore; assay: as above; details: for Fold changes of MICs: EKO-35 araC::acrBD408A Pore compared to EKO-35-Pore; for MIC: Escherichia coli, EKO-35 araC::acrBD408A Pore, technical duplicate, read-out: Minimum inhibitory concentration
# Procedure, shortened: as §2
# EKO-35-Pore = assay: MIC susceptibility profiling, porinated strain; details: for Fold changes of MICs: EKO-35-Pore compared to EKO-35-Pore (reference); for MIC: Escherichia coli, technical duplicate
# Procedure, shortened: as §2
# wild-type (WT) K-12-Pore = assay: microbe, parasite or virus in culture; details: Escherichia coli, technical duplicate
# Procedure, shortened: as §2
# ΔtolC-Pore = assay: microbe, parasite or virus in culture; details: for MIC: Escherichia coli, 18 h, read-out: Minimum inhibitory concentration, ΔtolC-Pore; for Minimum inhibitory concentration (MIC), Pore ΔtolC: Table 10, with pore, technical duplicate
# Procedure, shortened: as §2
# [4] = Table 10, without pore, read-out: Minimum inhibitory concentration (MIC), EKO-35
# [5] = Table 13A, non-porinated, read-out: Minimum Inhibitory Concentration, EKO-35
# [6] = Table 10, without pore, read-out: Minimum inhibitory concentration (MIC), K-12
# [7] = Table 13A, non-porinated, read-out: Minimum Inhibitory Concentration, K-12
# [8] = Table 10, with pore, read-out: Minimum inhibitory concentration (MIC), Pore EKO-35
# [9] = Table 14A, porinated, read-out: Minimum inhibitory concentration, EKO-35-Pore
# [10] = Table 10, with pore, read-out: Minimum inhibitory concentration (MIC), Pore K-12
Structure (SMILES),Fold change of MICs [1] [fold],MIC [1] [µg/mL],Fold change of MICs (EKO-35 araC::emrAB) [fold],MIC (EKO-35 araC::emrAB) [µg/mL],Fold change of MICs (EKO-35 araC::acrEF) [fold],MIC (EKO-35 araC::acrEF) [µg/mL],Fold change of MICs (EKO-35 araC::mdtEF) [fold],MIC (EKO-35 araC::mdtEF) [µg/mL],Fold change of MICs (EKO-35 araC::acrB) [fold],MIC (EKO-35 araC::acrB) [µg/mL],Fold change of MICs (EKO-35 araC::acrBD408A) [fold],MIC (EKO-35 araC::acrBD408A) [µg/mL],Fold change of MICs (EKO-35 araC::macAB) [fold],Fold change of MICs (EKO-35 araC::acrD) [fold],MIC (EKO-35 araC::acrD) [µg/mL],Fold change of MICs (EKO-35 araC::mdtBC) [fold],MIC (EKO-35 araC::mdtBC) [µg/mL],Fold change of MICs (EKO-35 araC::emrKY) [fold],Fold change of MICs (E. coli EKO-35) [fold],MIC (E. coli EKO-35; [4]) [µg/mL],other results
CC1(C)S[C@@H]2[C@H](NC(=O)[C@H](N)c3ccccc3)C(=O)N2[C@H]1C(=O)O [ampicillin],1,25,1,25,2,50,1,25,4,100,1,25,1,4,100,1,25,1,1,25,"MIC (EKO-35 araC::emrKY; Escherichia coli, Table 13B, non-porinated, technical duplicate, read-out: Minimum Inhibitory Concentration, EKO-35 araC::emrKY): 25 µg/mL; MIC (E. coli EKO-35; [5]): 25 µg/mL; MIC [2, 6]: 100 µg/mL; MIC [2, 7]: 100 µg/mL; MIC (E. coli ΔtolC): 25 µg/mL; Minimum inhibitory concentration (MIC), ΔtolC (E. coli ΔtolC): 25 µg/mL; Fold changes of MICs (EKO-35 araC::acrD Pore): 16 fold; MIC (EKO-35 araC::acrD Pore): 25 µg/mL; Fold changes of MICs (EKO-35 araC::emrKY Pore): 2 fold; MIC (EKO-35 araC::emrKY Pore): 3.12 µg/mL; Fold changes of MICs [3]: 1 fold; MIC [3]: 0.781 µg/mL; Fold changes of MICs (EKO-35-Pore): 1 fold; MIC (EKO-35-Pore; [8]): 1.56 µg/mL; MIC (EKO-35-Pore; [9]): 1.56 µg/mL; MIC (wild-type (WT) K-12-Pore; [10]): 12.5 µg/mL; MIC (ΔtolC-Pore): 1.56 µg/mL; Minimum inhibitory concentration (MIC), Pore ΔtolC (ΔtolC-Pore): 1.563 µg/mL"
CC[C@H]1OC(=O)[C@H](C)[C@@H](O[C@H]2C[C@@](C)(OC)[C@@H](O)[C@H](C)O2)[C@H](C)[C@@H](O[C@@H]2O[C@H](C)C[C@H](N(C)C)[C@H]2O)[C@](C)(O)C[C@@H](C)CN(C)[C@H](C)[C@@H](O)[C@]1(C)O [azithromycin],4,3.12,1,0.781,8,6.25,8,6.25,16,12.5,1,0.781,4,1,0.781,1,0.781,1,1,0.781,"MIC (EKO-35 araC::macAB; Escherichia coli, Table 13B, non-porinated, technical duplicate, read-out: Minimum Inhibitory Concentration, EKO-35 araC::macAB): 3.12 µg/mL; efflux pump-mediated resistance vs EKO-35 (EKO-35 araC::macAB; MacAB): specific; MIC (E. coli EKO-35; [5]): 0.781 µg/mL; MIC [2, 6]: 6.25 µg/mL; MIC [2, 7]: 6.25 µg/mL; MIC (E. coli ΔtolC): 0.781 µg/mL; Minimum inhibitory concentration (MIC), ΔtolC (E. coli ΔtolC): 0.781 µg/mL; Fold changes of MICs (EKO-35 araC::acrD Pore): 1 fold; MIC (EKO-35 araC::acrD Pore): 0.024 µg/mL; Fold changes of MICs (EKO-35 araC::emrKY Pore): 1 fold; MIC (EKO-35 araC::emrKY Pore): 0.024 µg/mL; Fold changes of MICs [3]: 2 fold; MIC [3]: 0.098 µg/mL; Fold changes of MICs (EKO-35-Pore): 1 fold; MIC (EKO-35-Pore; [8]): 0.049 µg/mL; MIC (EKO-35-Pore; [9]): 0.049 µg/mL; MIC (wild-type (WT) K-12-Pore; [10]): 0.391 µg/mL; MIC (wild-type (WT) K-12-Pore; Table 14A, porinated, read-out: Minimum inhibitory concentration, K-12 (WT)-Pore): 0.391 µg/mL; MIC (ΔtolC-Pore): 0.049 µg/mL; Minimum inhibitory concentration (MIC), Pore ΔtolC (ΔtolC-Pore): 0.049 µg/mL"
